Laboratory results taken from patent publication US8232407B2, “Nitrogenous heterocyclic compounds with insecticidal activity, and the preparation and use thereof” (East China University of Science and Technology, priority 2008, dated 2012).

Experiments:
Aphis craccivoral = assay: Insecticidal activities to aphids, immersion method; assay type: in vivo; details: in vivo
Protocol: (1): Insecticidal Activities to Aphids
Aphis (Aphis craccivoral), which belongs to Homoptera and has a piercing-sucking mouthpart, is a common insect for agricultural plant. Aphis craccivoral was tested by immersion method.
Procedure: exactly weighed various samples were independently added to N,N-dimethylformamide to form 10 g/L stock solutions. The stock solutions were diluted with 0.2 mL/L aqueous Triton X-100 solution to a concentration of 500 ppm. After stably sucking on bean sprout, the wingless adult aphis together with bean sprout were dipped into 500 ppm dilution, taken out after 5 seconds, and the excess dilution was sucked off with bibulous paper. The treated wingless adult aphis was incubated in clean vessel at a constant temperature of 23° C. Each concentration was repeated for 3 times and the control group was treated with 0.2mL/L aqueous Triton X-100 solution. The number of killed aphis was counted after 24 hours and the mortality was to calculated according to the following formula:
(§1) Mortality (%)=(the number of the survival aphis in control group−the number of the survival aphis in the treatment group)/the number of the survival aphis in control group×100%

Nilaparvata lugens = assay: Insecticidal activities to plant hopper, spraying method; assay type: in vivo; details: in vivo
Protocol: as §1
(2): Insecticidal Activities to Plant hopper
Plant hopper (Nilaparvata lugens), which belongs to Homoptera and has a piercing-sucking mouthpart, is a common insect for agricultural plant. Nilaparvata lugens was tested by spraying method.
Procedure: the test compound was exactly formulated with acetone to form solutions having concentrations of 500, 250, 100, 50, 25, 12.5, 6.25, 3.13, 1.57 and 0.79 ppm, respectively. Aqueous acetone solution was used as control. Each treatment was repeated for 3 tumblers (3 times). Two ml of solution was sprayed uniformly to each tumbler with a mini manual sprayer. 10 insects were introduced to every basin 6 hours before spraying. Three series of experiments were conducted. The number of killed insects was counted after 24 hours to calculate the mortality according to the above mentioned formula.

SMILES: CN=C(C(=Cc1ccc([N+](=O)[O-])o1)[N+](=O)[O-])N(C)Cc1cnc(Cl)s1 [Compound 217]
- Aphis craccivoral Mortality (%) 500 ppm (Aphis craccivoral): 77%
- Nilaparvata lugens Mortality (%) 500 ppm (Nilaparvata lugens): 43%

SMILES: CCN=C(C(=Cc1ccc(Cl)o1)[N+](=O)[O-])N(C)Cc1ccc(Cl)nc1 [Compound 173]
- Aphis craccivoral Mortality (%) 500 ppm (Aphis craccivoral): 87%
- Nilaparvata lugens Mortality (%) 500 ppm (Nilaparvata lugens): 85%

SMILES: CN=C(C(=Cc1ccc([N+](=O)[O-])s1)[N+](=O)[O-])N(C)Cc1ccc(Cl)nc1 [Compound 168]
- Aphis craccivoral Mortality (%) 500 ppm (Aphis craccivoral): 80%
- Nilaparvata lugens Mortality (%) 500 ppm (Nilaparvata lugens): 90%

SMILES: CN=C(NCc1ccc(Cl)nc1)C(=Cc1cccs1)[N+](=O)[O-] [Compound 156]
- Aphis craccivoral Mortality (%) 500 ppm (Aphis craccivoral): 89%
- Nilaparvata lugens Mortality (%) 500 ppm (Nilaparvata lugens): 90%

SMILES: CN=C(C(=Cc1ccc[nH]1)[N+](=O)[O-])N(C)Cc1cnc(Cl)s1 [Compound 224]
- Aphis craccivoral Mortality (%) 500 ppm (Aphis craccivoral): 32%
- Nilaparvata lugens Mortality (%) 500 ppm (Nilaparvata lugens): 52%

SMILES: CN=C(C(=Cc1ccco1)[N+](=O)[O-])N(C)Cc1ccc(Cl)nc1 [Compound 161]
- Aphis craccivoral Mortality (%) 500 ppm (Aphis craccivoral): 100%
- Nilaparvata lugens Mortality (%) 500 ppm (Nilaparvata lugens): 65%

SMILES: CN=C(NCc1ccc(Cl)nc1)C(=Cc1ccc(Cl)s1)[N+](=O)[O-] [Compound 159]
- Aphis craccivoral Mortality (%) 500 ppm (Aphis craccivoral): 55%
- Nilaparvata lugens Mortality (%) 500 ppm (Nilaparvata lugens): 67%

SMILES: CN=C(NCc1ccc(Cl)nc1)C(=Cc1ccc(Br)o1)[N+](=O)[O-] [Compound 155]
- Aphis craccivoral Mortality (%) 500 ppm (Aphis craccivoral): 67%
- Nilaparvata lugens Mortality (%) 500 ppm (Nilaparvata lugens): 36%

SMILES: CN=C(C(=C(C)c1ccc([N+](=O)[O-])o1)[N+](=O)[O-])N(C)C(C)c1ccc(Cl)nc1 (stereo not drawn) [Compound 212]
- Aphis craccivoral Mortality (%) 500 ppm (Aphis craccivoral): 96%
- Nilaparvata lugens Mortality (%) 500 ppm (Nilaparvata lugens): 100%

SMILES: CCN(C(=NC)C(=Cc1cccs1)[N+](=O)[O-])C(C)c1ccc(Cl)nc1 (stereo not drawn) [Compound 210]
- Aphis craccivoral Mortality (%) 500 ppm (Aphis craccivoral): 100%
- Nilaparvata lugens Mortality (%) 500 ppm (Nilaparvata lugens): 100%

SMILES: CCN(Cc1ccc(Cl)nc1)C(=NC)C(=Cc1ccc([N+](=O)[O-])s1)[N+](=O)[O-] [Compound 186]
- Aphis craccivoral Mortality (%) 500 ppm (Aphis craccivoral): 100%
- Nilaparvata lugens Mortality (%) 500 ppm (Nilaparvata lugens): 100%

SMILES: CN=C(C(=Cc1ccc(Br)o1)[N+](=O)[O-])N(C)Cc1cnc(Cl)s1 [Compound 219]
- Aphis craccivoral Mortality (%) 500 ppm (Aphis craccivoral): 87%
- Nilaparvata lugens Mortality (%) 500 ppm (Nilaparvata lugens): 87%

SMILES: CCN(Cc1ccc(Cl)nc1)C(=NC)C(=C(C)c1ccc[nH]1)[N+](=O)[O-] [Compound 204]
- Aphis craccivoral Mortality (%) 500 ppm (Aphis craccivoral): 92%
- Nilaparvata lugens Mortality (%) 500 ppm (Nilaparvata lugens): 100%

SMILES: CCN=C(C(=Cc1cccs1)[N+](=O)[O-])N(C)Cc1ccc(Cl)nc1 [Compound 175]
- Aphis craccivoral Mortality (%) 500 ppm (Aphis craccivoral): 100%
- Nilaparvata lugens Mortality (%) 500 ppm (Nilaparvata lugens): 100%

SMILES: CCN(Cc1ccc(Cl)nc1)C(=NC)C(=Cc1ccc[nH]1)[N+](=O)[O-] [Compound 243]
- Aphis craccivoral Mortality (%) 500 ppm (Aphis craccivoral): 96%
- Nilaparvata lugens Mortality (%) 500 ppm (Nilaparvata lugens): 100%

SMILES: CCN(Cc1ccc(Cl)nc1)C(=NC)C(=C(C)c1ccc([N+](=O)[O-])o1)[N+](=O)[O-] [Compound 197]
- Aphis craccivoral Mortality (%) 500 ppm (Aphis craccivoral): 98%
- Nilaparvata lugens Mortality (%) 500 ppm (Nilaparvata lugens): 100%

SMILES: CN=C(C(=Cc1ccc(Cl)o1)[N+](=O)[O-])N(C)Cc1cnc(Cl)s1 [Compound 218]
- Aphis craccivoral Mortality (%) 500 ppm (Aphis craccivoral): 88%
- Nilaparvata lugens Mortality (%) 500 ppm (Nilaparvata lugens): 86%

SMILES: CCN(Cc1cnc(Cl)s1)C(=NC)C(=Cc1ccc(Cl)o1)[N+](=O)[O-] [Compound 228]
- Aphis craccivoral Mortality (%) 500 ppm (Aphis craccivoral): 100%
- Nilaparvata lugens Mortality (%) 500 ppm (Nilaparvata lugens): 100%

SMILES: CCN=C(C(=Cc1ccc([N+](=O)[O-])o1)[N+](=O)[O-])N(CC)Cc1ccc(Cl)nc1 [Compound 191]
- Aphis craccivoral Mortality (%) 500 ppm (Aphis craccivoral): 95%
- Nilaparvata lugens Mortality (%) 500 ppm (Nilaparvata lugens): 100%

SMILES: CCN(Cc1ccc(Cl)nc1)C(=NC)C(=Cc1ccc(Br)o1)[N+](=O)[O-] [Compound 183]
- Aphis craccivoral Mortality (%) 500 ppm (Aphis craccivoral): 100%
- Nilaparvata lugens Mortality (%) 500 ppm (Nilaparvata lugens): 100%

SMILES: CN=C(C(=Cc1ccco1)[N+](=O)[O-])N(C)Cc1ccc(Cl)nc1 [Compound 232]
- Aphis craccivoral Mortality (%) 500 ppm (Aphis craccivoral): 96%
- Nilaparvata lugens Mortality (%) 500 ppm (Nilaparvata lugens): 56%

SMILES: CN=C(C(=Cc1cccs1)[N+](=O)[O-])N(C)Cc1ccc(Cl)nc1 [Compound 236]
- Aphis craccivoral Mortality (%) 500 ppm (Aphis craccivoral): 82%
- Nilaparvata lugens Mortality (%) 500 ppm (Nilaparvata lugens): 79%

SMILES: CCN=C(C(=Cc1ccoc1)[N+](=O)[O-])N(CC)Cc1ccc(Cl)nc1 [Compound 190]
- Aphis craccivoral Mortality (%) 500 ppm (Aphis craccivoral): 87%
- Nilaparvata lugens Mortality (%) 500 ppm (Nilaparvata lugens): 100%

SMILES: CCN(Cc1cnc(Cl)s1)C(=NC)C(=Cc1ccc[nH]1)[N+](=O)[O-] [Compound 231]
- Aphis craccivoral Mortality (%) 500 ppm (Aphis craccivoral): 37%
- Nilaparvata lugens Mortality (%) 500 ppm (Nilaparvata lugens): 76%

SMILES: CN=C(NCc1ccc(Cl)nc1)C(=Cc1ccc([N+](=O)[O-])s1)[N+](=O)[O-] [Compound 158]
- Aphis craccivoral Mortality (%) 500 ppm (Aphis craccivoral): 43%
- Nilaparvata lugens Mortality (%) 500 ppm (Nilaparvata lugens): 43%

SMILES: CN=C(C(=Cc1ccoc1)[N+](=O)[O-])N(C)Cc1ccc(Cl)nc1 [Compound 233]
- Aphis craccivoral Mortality (%) 500 ppm (Aphis craccivoral): 80%
- Nilaparvata lugens Mortality (%) 500 ppm (Nilaparvata lugens): 86%

SMILES: CCN=C(C(=Cc1ccc(Br)o1)[N+](=O)[O-])N(CC)Cc1ccc(Cl)nc1 [Compound 193]
- Aphis craccivoral Mortality (%) 500 ppm (Aphis craccivoral): 89%
- Nilaparvata lugens Mortality (%) 500 ppm (Nilaparvata lugens): 100%

SMILES: CN=C(C(=Cc1ccc([N+](=O)[O-])o1)[N+](=O)[O-])N(C)Cc1ccc(Cl)nc1 [Compound 163]
- Aphis craccivoral Mortality (%) 500 ppm (Aphis craccivoral): 100%
- Nilaparvata lugens Mortality (%) 500 ppm (Nilaparvata lugens): 100%

SMILES: CN=C(C(=Cc1ccoc1)[N+](=O)[O-])N(C)Cc1ccc(Cl)nc1 [Compound 162]
- Aphis craccivoral Mortality (%) 500 ppm (Aphis craccivoral): 100%
- Nilaparvata lugens Mortality (%) 500 ppm (Nilaparvata lugens): 100%

SMILES: CCN(Cc1cnc(Cl)s1)C(=NC)C(=Cc1ccoc1)[N+](=O)[O-] [Compound 226]
- Aphis craccivoral Mortality (%) 500 ppm (Aphis craccivoral): 68%
- Nilaparvata lugens Mortality (%) 500 ppm (Nilaparvata lugens): 49%

SMILES: CN=C(C(=Cc1ccc(Br)o1)[N+](=O)[O-])N(C)Cc1ccc(Cl)nc1 [Compound 235]
- Aphis craccivoral Mortality (%) 500 ppm (Aphis craccivoral): 91%
- Nilaparvata lugens Mortality (%) 500 ppm (Nilaparvata lugens): 86%

SMILES: CCN(Cc1ccc(Cl)nc1)C(=NC)C(=Cc1ccco1)[N+](=O)[O-] [Compound 241]
- Aphis craccivoral Mortality (%) 500 ppm (Aphis craccivoral): 68%
- Nilaparvata lugens Mortality (%) 500 ppm (Nilaparvata lugens): 76%

SMILES: CCN(Cc1cnc(Cl)s1)C(=NC)C(=Cc1ccc([N+](=O)[O-])s1)[N+](=O)[O-] [Compound 229]
- Aphis craccivoral Mortality (%) 500 ppm (Aphis craccivoral): 65%
- Nilaparvata lugens Mortality (%) 500 ppm (Nilaparvata lugens): 75%

SMILES: CCN(Cc1ccc(Cl)nc1)C(=NC)C(=Cc1ccco1)[N+](=O)[O-] [Compound 179]
- Aphis craccivoral Mortality (%) 500 ppm (Aphis craccivoral): 100%
- Nilaparvata lugens Mortality (%) 500 ppm (Nilaparvata lugens): 100%

SMILES: CCN(Cc1ccc(Cl)nc1)C(=NC)C(=C(C)c1ccc([N+](=O)[O-])s1)[N+](=O)[O-] [Compound 202]
- Aphis craccivoral Mortality (%) 500 ppm (Aphis craccivoral): 100%
- Nilaparvata lugens Mortality (%) 500 ppm (Nilaparvata lugens): 100%

SMILES: CN=C(C(=C(C)c1ccc[nH]1)[N+](=O)[O-])N(C)C(C)c1ccc(Cl)nc1 (stereo not drawn) [Compound 216]
- Aphis craccivoral Mortality (%) 500 ppm (Aphis craccivoral): 100%
- Nilaparvata lugens Mortality (%) 500 ppm (Nilaparvata lugens): 100%

SMILES: CN=C(C(=Cc1ccc(Cl)s1)[N+](=O)[O-])N(C)Cc1ccc(Cl)nc1 [Compound 169]
- Aphis craccivoral Mortality (%) 500 ppm (Aphis craccivoral): 76%
- Nilaparvata lugens Mortality (%) 500 ppm (Nilaparvata lugens): 67%

SMILES: CN=C(C(=C(C)c1ccc(Cl)s1)[N+](=O)[O-])N(C)C(C)c1ccc(Cl)nc1 (stereo not drawn) [Compound 215]
- Aphis craccivoral Mortality (%) 500 ppm (Aphis craccivoral): 100%
- Nilaparvata lugens Mortality (%) 500 ppm (Nilaparvata lugens): 100%

SMILES: CCN=C(C(=Cc1ccc(Cl)s1)[N+](=O)[O-])N(C)Cc1ccc(Cl)nc1 [Compound 177]
- Aphis craccivoral Mortality (%) 500 ppm (Aphis craccivoral): 87%
- Nilaparvata lugens Mortality (%) 500 ppm (Nilaparvata lugens): 100%

SMILES: CCN(C(=NC)C(=Cc1ccoc1)[N+](=O)[O-])C(C)c1ccc(Cl)nc1 (stereo not drawn) [Compound 206]
- Aphis craccivoral Mortality (%) 500 ppm (Aphis craccivoral): 65%
- Nilaparvata lugens Mortality (%) 500 ppm (Nilaparvata lugens): 44%

SMILES: CN=C(C(=Cc1ccsc1)[N+](=O)[O-])N(C)Cc1ccc(Cl)nc1 [Compound 167]
- Aphis craccivoral Mortality (%) 500 ppm (Aphis craccivoral): 100%
- Nilaparvata lugens Mortality (%) 500 ppm (Nilaparvata lugens): 100%

SMILES: CCN(C(=NC)C(=Cc1ccc([N+](=O)[O-])o1)[N+](=O)[O-])C(C)c1ccc(Cl)nc1 (stereo not drawn) [Compound 207]
- Aphis craccivoral Mortality (%) 500 ppm (Aphis craccivoral): 94%
- Nilaparvata lugens Mortality (%) 500 ppm (Nilaparvata lugens): 100%

SMILES: CCN(C(=NC)C(=Cc1ccc[nH]1)[N+](=O)[O-])C(C)c1ccc(Cl)nc1 (stereo not drawn) [Compound 211]
- Aphis craccivoral Mortality (%) 500 ppm (Aphis craccivoral): 73%
- Nilaparvata lugens Mortality (%) 500 ppm (Nilaparvata lugens): 73%

SMILES: CCN=C(C(=Cc1ccc(Br)o1)[N+](=O)[O-])N(C)Cc1ccc(Cl)nc1 [Compound 174]
- Aphis craccivoral Mortality (%) 500 ppm (Aphis craccivoral): 100%
- Nilaparvata lugens Mortality (%) 500 ppm (Nilaparvata lugens): 100%

SMILES: CN=C(C(=Cc1ccc(Br)o1)[N+](=O)[O-])N(C)Cc1ccc(Cl)nc1 [Compound 165]
- Aphis craccivoral Mortality (%) 500 ppm (Aphis craccivoral): 100%
- Nilaparvata lugens Mortality (%) 500 ppm (Nilaparvata lugens): 100%

SMILES: CN=C(NCc1ccc(Cl)nc1)C(=Cc1ccc([N+](=O)[O-])o1)[N+](=O)[O-] [Compound 153]
- Aphis craccivoral Mortality (%) 500 ppm (Aphis craccivoral): 56%
- Nilaparvata lugens Mortality (%) 500 ppm (Nilaparvata lugens): 87%

SMILES: CN=C(C(=Cc1cccs1)[N+](=O)[O-])N(C)Cc1ccc(Cl)nc1 [Compound 166]
- Aphis craccivoral Mortality (%) 500 ppm (Aphis craccivoral): 98%
- Nilaparvata lugens Mortality (%) 500 ppm (Nilaparvata lugens): 100%

SMILES: CN=C(C(=C(C)c1ccsc1)[N+](=O)[O-])N(C)C(C)c1ccc(Cl)nc1 (stereo not drawn) [Compound 213]
- Aphis craccivoral Mortality (%) 500 ppm (Aphis craccivoral): 89%
- Nilaparvata lugens Mortality (%) 500 ppm (Nilaparvata lugens): 68%
